RP-LC retention time data for 60 compounds are collected here from the METLIN SMRT retention time set (Domingo-Almenara et al. 2019).

The nature of the data set: gradient 5% acetonitrile 3 min, to 50% in 2 min, to 85% in 15 min, held 3 min, 100 µL/min. To be noted: column: Zorbax Extend-C18 2.1 x 50 mm; eluents: water / acetonitrile, 0.1% formic acid. The gist of the method: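 A Zorbax Extend-C18 column (2.1 × 50 mm, 1.8 μm) run at 100 μL/min with water and acetonitrile, both containing 0.1% formic acid, separated mixtures of ~100 pure standards. The HPLC was coupled to a quadrupole time-of-flight mass spectrometer operated in positive and negative ionization mode, with dead and dwell volumes of 40 μL and 900 μL. Each retention time was taken from a computationally picked adduct peak that was then manually inspected.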
In the case of `CCN(CC)S(=O)(=O)c1cc(-c2nnc(-c3ccccc3)o2)ccc1OC`, the RP-LC retention time amounted to 977 s.
The figure for `COc1ccc(-c2nc(C)cc(C)c2CNC(=O)c2ccco2)cc1` is 585 s; for `Fc1cccc(CN2CCO[C@@H](COc3ccccn3)[C@@H]2c2ccccc2)c1` it is 898 s; for `COc1ccc(S(=O)(=O)N2CCC(c3noc(-c4ccc(Cl)cc4)n3)CC2)cc1` it is 1140 s.
`COc1ccc2cc(C(=O)Nc3ccccc3)[nH]c2c1` registered an RP-LC retention time of 898 s.
The figure for `CCn1cc(S(=O)(=O)Nc2cc(C)ccc2F)c2cccnc21` is 846 s; for `CCCCOc1ccccc1C1NC(=O)NC(C)=C1C(=O)OCc1ccco1` (stereo not given) it is 938 s; for `CCCC(=O)N1CCN(c2nc3ccccc3nc2C(F)(F)F)CC1` it is 1020 s.
The figure for `Cn1c(N)c(C(=O)c2ccco2)c(=O)n(C)c1=O` is 560 s.
The figure for `CCN1c2ccc(C)cc2C(=O)NC12CCN(C(=O)Cc1ccccc1)CC2` is 820 s; for `Cc1ccc(-c2cc(C(=O)NCc3ccc4c(c3)OCO4)ccn2)s1` it is 902 s.
For the compound `CCc1noc(-c2ccc(SCC(=O)N3CCC(C)CC3)nc2)n1`, the RP-LC retention time was 975 s.
Take `O=C(CN1CC(c2nc(-c3cccc(Cl)c3)no2)C1)NCC1CCCO1` (stereo not given): the RP-LC retention time is 590 s.
`CN1C2CCC1CC(OC(c1ccc(F)cc1)c1ccc(F)cc1)C2` (stereo not given) gave an RP-LC retention time of 838 s.
Then `CN(Cc1ccccc1)C(=O)CN1C(=O)C2CCCCN2c2ccc(S(=O)(=O)N(C)C)cc21` (stereo not given), with 939 s; and `O=C(c1cccc2[nH]ccc12)N1CCC2(CC1)N=C(c1cccc(Br)c1)NO2`, with 849 s; and `Brc1ccc(-c2ccc(CNCc3ccc4c(c3)OCO4)o2)cc1`, with 776 s.
`CCOc1ccc(Nc2c(C(=O)N3CCCCC3C)cnc3nc(C)ccc23)cc1` (stereo not given) showed an RP-LC retention time of 668 s.
Then `COc1cc(C2CC(=O)c3c([nH]c(C(=O)OC4CCCCCC4)c3C)C2)cc(OC)c1OC` (stereo not given), with 1160 s.
`Cc1cccc(CNC(=O)CCC(=O)N2CCSc3nc(C)cc(C)c32)c1` had an RP-LC retention time of 692 s.
Then `CCOC(=O)N1CCN(c2ncc(C(=O)Nc3ccc(OC)cc3)c(N)n2)CC1`, with 679 s; and `CC(C)c1nnc2ccc(NC(=O)Nc3ccccc3)cn12`, with 712 s.
Then `COCCN1CCn2cc(S(=O)(=O)Nc3ccc(F)cc3F)cc2C1=O`, with 694 s; and `CCN(CC)S(=O)(=O)N1CCCC(C(=O)NCCc2ccc(Cl)cc2)C1` (stereo not given), with 945 s; and `Cc1cc2n(n1)CCC(=O)N2CCCC(=O)N1CCOCC1`, with 585 s.
As to `Cc1nc2cc3c(cc2n1CC(=O)Nc1ccc2c(c1)OCCO2)OCCO3`, the RP-LC retention time turned out to be 632 s.
`CS(=O)(=O)N[C@H]1C[C@@H]2C[C@H]1CN2C(=O)c1ccccc1C(F)(F)F`: the RP-LC retention time came to 705 s.
As to `O=C(Cn1cnc2cc3c(cc21)OCCO3)Nc1ccc2c(c1)OCCO2`, the RP-LC retention time turned out to be 623 s.
The figure for `Cc1ccc(Nc2nc3ccncc3n(Cc3ccccc3)c2=O)cc1` is 778 s; for `CC(C)n1cc(S(=O)(=O)NCc2ccc(C(F)(F)F)cc2)c2cccnc21` it is 974 s.
`Cc1ccc(F)c(NS(=O)(=O)c2cc3n(c2)CCN(C)C3=O)c1` had an RP-LC retention time of 696 s.
Turning to `Cc1ccc(N2C(=O)C3N=NN(Cc4nc(-c5ccc6c(c5)OCO6)no4)C3C2=O)cc1` (stereo not given), the RP-LC retention time is 957 s.
In turn, `CCn1c(=O)c(N2CCN(C(=O)Nc3ccccc3Cl)CC2)nc2ccccc21` had an RP-LC retention time of 987 s.
Compound `O=C(Nc1ccc(N2CCN(c3ccccc3)C2=O)nc1)c1cccnc1` showed an RP-LC retention time of 689 s.
Then `CC(C)Cn1nc2ccc(S(=O)(=O)N3CCC(C)CC3)cn2c1=O`, with 862 s; and `O=C(NCCN1CCOCC1)c1cc2n(n1)CCCN(Cc1ccc(Cl)cc1)C2=O`, with 629 s.
Then `Cn1c(=O)c(N2CCN(S(=O)(=O)c3ccc4c(c3)CCCC4)CC2)nc2ccncc21`, with 765 s.
The figure for `Cc1ccn2cc(C(=O)N3CCN(c4ccccc4F)CC3)nc2c1` is 662 s; for `Cc1ccc2nc(-c3ccccc3NC(=O)c3ccc(Br)o3)[nH]c2c1` it is 1140 s; for `CCc1cc(-c2csc(S(=O)(=O)NCCCN3CCN(c4ccccc4)CC3)c2)on1` it is 736 s.
In turn, `Cc1nc(-c2ccc(-c3noc(CN4C(=O)COc5ccc(Cl)cc54)n3)cc2)cs1` came in with an RP-LC retention time of 1150 s.
For `COc1ccc(-c2nc3n(n2)C2(CCCCC2)[C@@H]2CCCC[C@@H]2N3C(C)=O)cc1`, the RP-LC retention time amounted to 1330 s.
`O=C(Cn1cccc1-c1nnc(C2CCC2)o1)Nc1ccc(Cl)cc1` yielded an RP-LC retention time of 968 s.
Compound `COc1ccc(C(=O)N2CCC3(C2)C(=O)N(C)c2ccc(OC)cc23)c(OC)c1` (stereo not given) came in with an RP-LC retention time of 760 s.
The figure for `Fc1ccc(-c2nnc(Cc3nc(-c4ccc(Br)cc4)no3)o2)cc1` is 1110 s; for `CCCCOc1nc2c(c(=O)n(C)c(=O)n2C)n1C` it is 874 s; for `CCCNC(=O)c1ccc2nc(CCc3ccc(NC(=O)CCC)cc3)[nH]c2c1` it is 617 s.
In the case of `O=C1CCCN1Cc1noc(-c2cccc(Cl)c2)n1`, the RP-LC retention time was determined as 814 s.
In turn, `CCn1c(=O)c(C(=O)NCc2ccccc2F)nc2cccnc21` yielded an RP-LC retention time of 824 s.
The compound `COc1ccc(-c2noc(C3CCCN3C(=O)Nc3ccc(Cl)cc3)n2)cc1` (stereo not given) registered an RP-LC retention time of 920 s.
Regarding `CCOC(=O)N1CCN(c2cc(C(=O)O)c3cc(NC(=O)Cc4ccc(OC)cc4)ccc3n2)CC1`, the RP-LC retention time came out at 634 s.
The figure for `CCNC(=O)CN1C(=O)C2CCCCN2c2ccc(S(=O)(=O)N(CC)CC)cc21` (stereo not given) is 804 s; for `Cc1noc(C2CN(S(=O)(=O)c3ccccc3)CC23CCOCC3)n1` (stereo not given) it is 767 s.
`Cc1nc2cccnc2n1C1CCN(C(=O)Nc2ccc(Br)cc2)CC1` showed an RP-LC retention time of 669 s.
The figure for `CCn1c(=O)c2cc(C(=O)NCc3cc(C)ccc3C)nn2c2ccccc21` is 930 s; for `CC1CCCN(c2ccc(-c3noc(CN4CCN(c5ccccc5)CC4)n3)cn2)C1` (stereo not given) it is 1010 s; for `CC1(C)C(=O)NCCN1C(=O)c1cccc(C(F)(F)F)c1` it is 662 s.
Then `O=C(NCc1cccs1)C1CCN(S(=O)(=O)c2cc(-c3noc(C4CC4)n3)cs2)CC1`, with 910 s; and `CCc1noc(NC(C)=O)c1-c1ccc(OC)c(S(=O)(=O)Nc2ccc(Cl)cc2F)c1`, with 842 s.
As to `COc1ccccc1NC(=O)Nc1ccc2c(c1)N(S(=O)(=O)c1cccs1)CCC2`, the RP-LC retention time is 967 s.
